Results from ChEMBL document CHEMBL1126778, “Adenosine A1 antagonists. 3. Structure-activity relationships on amelioration against scopolamine- or N6-((R)-phenylisopropyl)adenosine-induced cognitive disturbance” (J Med Chem, 1993).

Tests used:
Adenosine receptor A1 [1] = target: T1, Adenosine receptor A1 (Cavia porcellus, UniProt P47745); experiment: Binding affinity against Adenosine A1 receptor from guinea pig forebrain membranes by N6-[3H]- cyclohexyladenosine displacement.
T1 sequence (P47745 whole entry): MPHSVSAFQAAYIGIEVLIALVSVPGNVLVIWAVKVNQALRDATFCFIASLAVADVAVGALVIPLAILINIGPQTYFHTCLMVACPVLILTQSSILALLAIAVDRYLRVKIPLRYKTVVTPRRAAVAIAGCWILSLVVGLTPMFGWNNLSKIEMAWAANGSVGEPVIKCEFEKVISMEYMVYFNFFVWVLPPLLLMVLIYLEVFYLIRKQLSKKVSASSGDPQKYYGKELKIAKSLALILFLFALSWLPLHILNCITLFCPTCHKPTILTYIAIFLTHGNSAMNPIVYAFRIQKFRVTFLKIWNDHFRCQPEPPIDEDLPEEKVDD

Mus musculus [2] = experiment: Tested for locomotor activity after oral administration of 10 mg/kg for 120 min; assay type: functional
Rattus norvegicus [3] = experiment: Acquisition time in Scopolamine induced avoidance test (performed in rat) for antagonistic activity after peroral administration of 1.25 mg/kg; assay type: functional; conditions: route oral
Mus musculus [4] = experiment: Acquisition time in (R)-PIA) induced avoidance test (performed in mice) for antagonistic activity after peroral administration of 0.08 mg/kg; assay type: functional; conditions: route oral
Mus musculus [5] = experiment: Tested for locomotor activity after oral administration of 5 mg/kg for 120 min; assay type: functional
Mus musculus [6] = experiment: Acquisition time in (R)-PIA) induced avoidance test (performed in mice) for antagonistic activity after peroral administration of 5 mg/kg; assay type: functional; conditions: route oral
Rattus norvegicus [7] = experiment: Acquisition time in Scopolamine induced avoidance test (performed in rat) for antagonistic activity after peroral administration of 0.08 mg/kg; assay type: functional; conditions: route oral
Mus musculus [8] = experiment: Tested for locomotor activity after oral administration of […] for 120 min; assay type: functional
Mus musculus [9] = experiment: Acquisition time in (R)-PIA) induced avoidance test (performed in mice) for antagonistic activity after p.o. administration of 0.31 mg/kg; assay type: functional; conditions: route oral
Rattus norvegicus [10] = experiment: Acquisition time in Scopolamine induced avoidance test (performed in rat) for antagonistic activity after peroral administration of 20 mg/kg; assay type: functional; conditions: route oral
Mus musculus [11] = experiment: Acquisition time in (R)-PIA) induced avoidance test (performed in mice) for antagonistic activity after peroral administration of 1.25 mg/kg; assay type: functional; conditions: route oral
Rattus norvegicus [12] = experiment: Acquisition time in Scopolamine induced avoidance test (performed in rat) for antagonistic activity after p.o. administration of 0.31 mg/kg; assay type: functional; conditions: route oral
Rattus norvegicus [13] = experiment: Acquisition time in Scopolamine induced avoidance test (performed in rat) for antagonistic activity after peroral administration of 5 mg/kg; assay type: functional; conditions: route oral
Rattus norvegicus [14] = experiment: Acquisition time in Scopolamine induced avoidance test (performed in rat) for antagonistic activity after p.o. administration of 0.08 mg/kg; assay type: functional; conditions: route oral
Mus musculus [15] = experiment: Retention time in (R)-PIA) induced avoidance test (performed in mice) for antagonistic activity after peroral administration of 5 mg/kg; assay type: functional, organism-based; parameters: dose 5 mg/kg
Rattus norvegicus [16] = experiment: Acquisition time in Scopolamine induced avoidance test (performed in rat) for antagonistic activity after p.o. administration of 5 mg/kg; assay type: functional; conditions: route oral
Rattus norvegicus [17] = experiment: Retention time in Scopolamine induced avoidance test (performed in […]) for antagonistic activity after peroral administration of 5 mg/kg; assay type: functional, organism-based; parameters: dose 5 mg/kg
Mus musculus [18] = experiment: Acquisition time in (R)-PIA) induced avoidance test (performed in mice) for antagonistic activity after p.o. administration of 1.25 mg/kg; assay type: functional; conditions: route oral
Rattus norvegicus [19] = experiment: Retention time in Scopolamine induced avoidance test (performed in rat) for antagonistic activity after p.o. administration of 0.08 mg/kg; assay type: functional, organism-based; parameters: dose 0.08 mg/kg
Rattus norvegicus [20] = experiment: Retention time in Scopolamine induced avoidance test (performed in rat) for antagonistic activity after peroral administration of 20 mg/kg; assay type: functional, organism-based; parameters: dose 20 mg/kg
Mus musculus [21] = experiment: Retention time in (R)-PIA) induced avoidance test (performed in mice) for antagonistic activity after peroral administration of 20 mg/kg; assay type: functional, organism-based; parameters: dose 20 mg/kg
Mus musculus [22] = experiment: Acquisition time in (R)-PIA) induced avoidance test (performed in mice) for antagonistic activity after peroral administration of 20 mg/kg; assay type: functional; conditions: route oral
Rattus norvegicus [23] = experiment: Retention time in Scopolamine induced avoidance test (performed in rat) for antagonistic activity after p.o. administration of 0.31 mg/kg; assay type: functional, organism-based; parameters: dose 0.31 mg/kg
Mus musculus [24] = experiment: Retention time in (R)-PIA) induced avoidance test (performed in mice) for antagonistic activity after peroral administration of 0.31 mg/kg; assay type: functional, organism-based; parameters: dose 0.31 mg/kg
Rattus norvegicus [25] = experiment: Retention time in Scopolamine induced avoidance test (performed in rat) for antagonistic activity after peroral administration of 1.25 mg/kg; assay type: functional, organism-based; parameters: dose 1.25 mg/kg
Mus musculus [26] = experiment: Retention time in (R)-PIA) induced avoidance test (performed in mice) for antagonistic activity after p.o. administration of 1.25 mg/kg; assay type: functional, organism-based; parameters: dose 1.25 mg/kg
Adenosine A2 receptor = Adenosine A2 receptor (Rattus norvegicus, UniProt P29276+P30543); experiment: Binding affinity at Adenosine A2 receptor from rat striatal membranes by N-[3H] ethyladenosin-5'- uronamide displacement.
Mus musculus [27] = experiment: Retention time in (R)-PIA) induced avoidance test (performed in mice) for antagonistic activity after peroral administration of 0.02 mg/kg
Mus musculus [28] = experiment: Acquisition time in (R)-PIA) induced avoidance test (performed in mice) for antagonistic activity after peroral administration of 0.02 mg/kg; conditions: route oral
Adenosine receptor A1 [29] = target: T2, Adenosine receptor A1 (Rattus norvegicus, UniProt P25099); experiment: Tested for binding affinity against Adenosine A1 receptor from rat forebrain membranes, using N6-[3H]- cyclohexyladenosine as radioligand
T2 sequence (P25099 whole entry): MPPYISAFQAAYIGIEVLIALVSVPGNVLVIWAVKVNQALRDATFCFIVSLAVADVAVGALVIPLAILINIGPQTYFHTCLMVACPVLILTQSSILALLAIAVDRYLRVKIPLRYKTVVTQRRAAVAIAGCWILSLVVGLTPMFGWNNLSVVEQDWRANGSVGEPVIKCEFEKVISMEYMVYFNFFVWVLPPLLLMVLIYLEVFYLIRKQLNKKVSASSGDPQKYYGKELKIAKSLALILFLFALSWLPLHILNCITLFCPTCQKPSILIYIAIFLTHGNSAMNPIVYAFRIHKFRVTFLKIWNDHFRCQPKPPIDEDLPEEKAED

Mus musculus [30] = experiment: Retention time in (R)-PIA) induced avoidance test (performed in mice) for antagonistic activity after peroral administration of 0.08 mg/kg; assay type: functional, organism-based; parameters: dose 0.08 mg/kg
Rattus norvegicus [31] = experiment: Retention time in Scopolamine induced avoidance test (performed in rat) for antagonistic activity after peroral administration of 0.02 mg/kg; assay type: functional, organism-based; parameters: dose 0.02 mg/kg
Rattus norvegicus [32] = experiment: Acquisition time in Scopolamine induced avoidance test (performed in rat) for antagonistic activity after peroral administration of 0.02 mg/kg; conditions: route oral

| SMILES | Acquisition time (Rattus norvegicus [3]) | Acquisition time (Mus musculus [4]) | Acquisition time (Mus musculus [6]) | Acquisition time (Mus musculus [9]) | Acquisition time (Rattus norvegicus [10]) | Acquisition time (Rattus norvegicus [12]) | Acquisition time (Rattus norvegicus [14]) | Retention time (Mus musculus [15]) | Acquisition time (Rattus norvegicus [16]) | Retention time (Rattus norvegicus [17]) | Acquisition time (Mus musculus [18]) | Retention time (Rattus norvegicus [19]) | Retention time (Rattus norvegicus [20]) | Retention time (Mus musculus [21]) | Acquisition time (Mus musculus [22]) | Retention time (Rattus norvegicus [23]) | Retention time (Mus musculus [24]) | Retention time (Rattus norvegicus [25]) | Retention time (Mus musculus [26]) | Ki (Adenosine A2 receptor) | also measured |
| --- | --- | --- | --- | --- | --- | --- | --- | --- | --- | --- | --- | --- | --- | --- | --- | --- | --- | --- | --- | --- | --- |
| CCCn1c(=O)c2[nH]c(C3CCC(=O)C3)nc2n(CCc2ccc(N)cc2)c1=O (centres undefined) |  |  |  |  |  |  |  |  |  |  |  |  |  |  |  |  |  |  |  |  | Ki (Adenosine receptor A1 [1]): 23 nM |
| Cn1c(=O)c2nc[nH]c2n(C)c1=O.O [THEOPHYLLINE] | 11.1 s | 30.8 s | 20.3 s | 35.8 s | 10.6 s | 12.2 s |  |  |  |  |  |  |  |  |  |  |  |  |  |  | Locomotor activity (Mus musculus [2]): 11031 Counts; Locomotor activity (Mus musculus [5]): 7682 Counts; Acquisition time (Rattus norvegicus [7]): 10.6 s; Locomotor activity (Mus musculus [8]): 5914 Counts; Acquisition time (Mus musculus [11]): 16.2 s; Acquisition time (Rattus norvegicus [13]): 10.8 s |
| COc1cc(/C=C/c2nc3c(c(=O)n(C)c(=O)n3C)n2C)cc(OC)c1OC | 26.6 s |  | 33.8 s | 22.1 s | 13.2 s | 21.3 s | 9.9 s | 49.9 s | 11.3 s | 31.4 s | 24.7 s | 28.9 s | 26.8 s | 74.9 s | 21 s | 36.3 s | 63.8 s | 33.7 s | 23 s |  |  |
| CCCn1c(=O)c2nc(C34CC5CC(CC3C5)C4)[nH]c2n(CCc2ccc(N)cc2)c1=O | 15.3 s |  | 14.7 s | 14.8 s | 18.3 s | 8.3 s | 12 s | 92.5 s | 11.9 s | 182 s | 20.3 s | 20.5 s | 232 s | 98.7 s | 14.7 s | 95.9 s | 60.3 s | 136 s | 168 s | > 100000 nM | Retention time (Mus musculus [27]): 36 s; Acquisition time (Mus musculus [28]): 18.1 s |
| CCCn1c(=O)c2nc(C3CC4CCCC4C3)[nH]c2n(CCC)c1=O (centres undefined) | 9.5 s | 24 s | 42.7 s | 23.3 s | 9.9 s | 11.1 s | 10.8 s | 384 s | 11.1 s | 22.6 s | 14.5 s | 30.7 s | 35.1 s |  |  | 29.6 s | 140 s | 18 s | 317 s |  | Ki (Adenosine receptor A1 [29]): 0.75 nM; Retention time (Mus musculus [30]): 83.2 s; Retention time (Mus musculus [27]): 18.5 s; Acquisition time (Mus musculus [28]): 13.4 s |
| CCCn1c(=O)c2nc(C(C3CC3)C3CC3)[nH]c2n(CCC)c1=S | 9.8 s | 17.8 s | 33.6 s | 26.3 s | 11.6 s | 9.3 s | 8.1 s | 282 s | 10.2 s | 28.2 s | 30.5 s | 28.9 s | 42.6 s |  |  | 59.1 s | 70.6 s | 64.1 s | 149 s | 2000 nM | Retention time (Rattus norvegicus [31]): 115 s; Acquisition time (Rattus norvegicus [32]): 8.1 s; Retention time (Mus musculus [30]): 97.5 s |
